{"source": "paper PMC6700801", "about": "“Caffeic acid phenethyl ester suppresses androgen receptor signaling and stability via inhibition of phosphorylation on Ser81 and Ser213” (Cell Communication and Signaling : CCS, 2019)", "target": "T1, Androgen receptor (AR) (Rattus norvegicus, UniProt P15207)", "T1 sequence (P15207 646-902 limits assumed)": "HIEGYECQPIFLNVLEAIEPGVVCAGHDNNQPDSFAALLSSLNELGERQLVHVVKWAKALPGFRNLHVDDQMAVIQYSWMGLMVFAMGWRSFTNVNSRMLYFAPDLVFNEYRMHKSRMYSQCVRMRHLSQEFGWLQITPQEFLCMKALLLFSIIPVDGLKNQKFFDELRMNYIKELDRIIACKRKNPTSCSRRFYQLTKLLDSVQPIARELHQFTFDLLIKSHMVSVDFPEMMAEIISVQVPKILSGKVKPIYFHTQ", "assay": "fluorescence polarization competition assay (PolarScreen AR Competitor Assay kit); very weak", "type": "binding", "note": "pIC50: −log10 of the molar value.", "data": [{"smiles": "O=C(/C=C/c1ccc(O)c(O)c1)OCCc1ccccc1", "note": "[Caffeic acid phenethyl ester]", "values": [{"measurement": "pIC50", "value": 3.88}]}]}
